{"source": "patent US20230054039A1", "about": "“METHOD OF TREATING HER2-POSITIVE BREAST CANCER” (University of Cincinnati, priority 2021, published 2023)", "key": {"Fip200−/− tumor cells": {"system": "Fip200−/− tumor cells", "assay": "Immunoblot of HER2 in Fip200-/- tumor cells treated with MG132 (FIG. 3C)", "type": "cell-based, mouse", "settings": "MG132 10 μM for 6 hours", "protocol": "FIG. 3C. Immunoblots showing levels of HER2, ubiquitin and GAPDH in Fip200+/+ and Fip200−/− cells treated with DMSO and MG132 (10 μM) for 6 hours.\nCell lines and culture: Primary HER2 tumor cells from FIP200f/f; MMTV-Neu mice (N148 and N418 cells) were isolated and cultured in DMEM/F12 supplemented with 10% FBS, 10 ng/mL EGF, […], and 50 units/mL penicillin-streptomycin. HER2 tumor cells were then infected with recombinant retroviruses encoding CreERT2 and deletion of Fip200 was induced by culturing with 100 nmol/L 4-hydroxytamoxifen (4-OHT). HeLa and MCF-7 cells were obtained from ATCC and maintained in DMEM supplemented with 10% FBS. FIP200 KO and control WT MEF cells have been described previously.\n(§1) Western blot: Cells were cultured in 3.5 cm diameter plates (80-90% confluence), washed by PBS buffer, and lysed for 15 min on ice using a RIPA buffer (#C2978, Sigma) containing an anti-protease mix (#PI78415, Thermo Scientific). Protein concentration was measured by BCA assay (#23225, Thermo Scientific). […]\nTo further investigate regulation of HER2 by autophagy, mRNA levels of HER2 in mammary tumor and HeLa cells with or without autophagy inhibition were examined. […] Next, HER2 protein stability was analyzed and a decreased half-life of HER2 protein in Fip200−/− tumor cells (˜3 hrs) relative to Fip200+/+tumor cells (˜5 hrs) (FIGS. 3A and 3B) was observed. […]"}, "[1]": {"system": "FIP200 and ATG13 KO HeLa cells", "assay": "Immunoblot of HER2 in FIP200 KO and ATG13 KO HeLa cells treated with MG132 (FIG. 3D)", "type": "cell-based", "settings": "MG132 10 μM for 6 hours", "protocol": "FIG. 3D. Immunoblots showing levels of HER2, ubiquitin and GAPDH in WT, FIP200 KO and Atg13 KO HeLa cells treated with DMSO and MG132 (10 μM) for 6 hours.\nCRISPR/Cas9-mediated knockout of FIP200 or ATG13 in HeLa and MCF-7 cells and knockdown of Atg5 in HER2 tumor cells: The pX458 plasmid, pSpCas9(BB)-2A-GFP (PX458) was a gift from Feng Zhang, Addgene plasmid # 48138 was used as the cloning backbone for expressing sgFIP200 and sgATG13. The sgRNA sequences of FIP200 and ATG13 are as follows:\nas §1\nTo further investigate regulation of HER2 by autophagy, mRNA levels of HER2 in mammary tumor and HeLa cells with or without autophagy inhibition were examined. […] Next, HER2 protein stability was analyzed and a decreased half-life of HER2 protein in Fip200−/− tumor cells (˜3 hrs) relative to Fip200+/+tumor cells (˜5 hrs) (FIGS. 3A and 3B) was observed. MG132 was used to inhibit proteasome-mediated protein degradation and its effect on HER2 protein levels in autophagy deficient HER2 tumor and HeLa cells was determined."}, "HeLa cells": {"system": "HeLa cells", "assay": "Immunoblot of HER2 levels in HeLa cells treated with autophagy inhibitors (FIG. 2I)", "type": "cell-based", "settings": "48 hrs, chloroquine 50 μM, bafilomycin 200 nM, 3-MA 5 mM, spautin-1 10 μM", "protocol": "FIG. 2I. Immuno-blots showing levels of HER2 and GAPDH in HeLa cells treated by HBSS starvation, chloroquine (50 μM), bafilomycin (200 nM), 3-methyladenine (3-MA) (5 mM) and spautin-1 (10 μM) for 48 hrs.\n(§2) Western blot: Cells were cultured in 3.5 cm diameter plates (80-90% confluence), washed by PBS buffer, and lysed for 15 min on ice using a RIPA buffer (#C2978, Sigma) containing an anti-protease mix (#PI78415, Thermo Scientific). Protein concentration was measured by BCA assay (#23225, Thermo Scientific). Equal amounts of proteins were subjected to SDS-PAGE and immunoblotting as described previously (Wei et al., 2011).\nTo further evaluate the role of autophagy in the regulation of HER2 levels, shRNA was used to knockdown expression of another essential autophagy gene, Atg5, in the two lines of HER2 tumor cells (FIGS. 2F and 2G). […] Further, decreased HER2 levels upon FIP200 deletion was due to autophagy blockade, rather than the loss of other activities of FIP200, in HER2-driven mammary tumor cells, which was consistent with the similar phenotypes of cKO and cKI mice."}, "[2]": {"system": "FIP200 and ATG13 KO HeLa cells", "assay": "Immunoblot of HER2 in FIP200 KO and ATG13 KO HeLa cells treated with Dynasore (FIG. 13C)", "type": "cell-based", "settings": "20 μM Dynasore for 24 hours", "protocol": "FIG. 13C. Immuno-blots showing levels of HER2 and GAPDH in WT, FIP200 KO and ATG13 KO HeLa cells with or without treatment of 20 μM Dynasore for 24 hours, as indicated.\nas §2\nTo test the above possibility directly, endocytosis of HER2 in HeLa cells with or without autophagy blockade was examined. […] In addition to endocytosis from the plasma membrane, proteins from the Golgi could be transported through endosomes to the lysosome or other compartments. […] Co-expression of mTurquoise2-beta-1,4-galactosyltransferase 1 (which constitutively expresses in the Golgi) in these cells further supported accumulation of HER2 in the Golgi of FIP200 and ATG13 KO HeLa cells (FIG. 4E)."}}, "note": "Peptide text beside a SMILES is read from it. * marks the point of attachment. Cbz = O=C(OCc1ccccc1)*", "data": [{"smiles": "CC(C)C[C@@H](C=O)NC(=O)[C@H](CC(C)C)NC(=O)[C@H](CC(C)C)NC(=O)OCc1ccccc1", "note": "[MG132] (Cbz-Leu-Leu-Leu-aldehyde)", "values": [{"measurement": "reversal of reduced levels of HER2 protein", "setting": "Fip200−/− tumor cells", "value": "did not significantly reverse the reduced levels of HER2 protein"}, {"measurement": "reversal of reduced levels of HER2 protein", "setting": "[1]", "value": "did not significantly reverse the reduced levels of HER2 protein"}]}, {"smiles": "CO/C1=C\\C(C)=C\\[C@@H](C)[C@@H](O)[C@@H](C)C/C(C)=C/C=C/[C@H](OC)[C@@H]([C@@H](C)[C@@H](O)[C@H](C)[C@@]2(O)C[C@@H](O)[C@H](C)[C@@H](C(C)C)O2)OC1=O", "note": "[bafilomycin Al, Bafilomycin A1]", "values": [{"measurement": "levels of HER2", "setting": "HeLa cells", "value": "reduced HER2 levels"}]}, {"smiles": "O=C(N/N=C/c1ccc(O)c(O)c1)c1cc2ccccc2cc1O", "note": "[Dynasore]", "values": [{"measurement": "rescue of decreased level of HER2", "setting": "[2]", "value": "did not rescue the decreased level of HER2"}]}, {"smiles": "CCN(CC)CCCC(C)Nc1ccnc2cc(Cl)ccc12", "note": "(centres unmarked) [chloroquine]", "values": [{"measurement": "levels of HER2", "setting": "HeLa cells", "value": "reduced HER2 levels"}]}]}
